According to patent publication US10028961B2, “Therapeutically active compounds and their methods of use” (AGIOS PHARMACEUTICALS, INC., priority 2013, dated 2018):

Tests used:
[1] = target: IDH1 wt/IDH1 R132C heterodimer (Homo sapiens (Human), UniProt O75874, R132C); test: In vitro assay for IDH1m R132C inhibitors, IDH1 wt/IDH1 R132C heterodimer, NADPH depletion (diaphorase/resazurin); format: biochemical; settings: NADPH/NADP
Description: The following describes the experimental procedures that can be used to obtain data on columns 2 and 4 of Table 4 and column 2 of Table 5.
In the primary reaction, the reduction of α-KG acid to 2-HG is accompanied by a concomitant oxidation of NADPH to NADP. The amount of NADPH remaining at the end of the reaction time is measured in a secondary diaphorase/resazurin reaction in which the NADPH is consumed in a 1:1 molar ratio with the conversion of resazurin to the highly fluorescent resorufin.
The mixture of compound, enzyme, and cofactor is pre-incubated at room temperature for 1 hr prior to the addition of alpha-ketoglutarate. To perform the secondary reaction, 10 uL of 1× buffer containing 36 μg/ml diaphorase and […] resazurin is added to the primary reaction and incubated for a further 5 minutes at 25° C. Florescence is read on a Spectramax platereader at Ex 544 Em 590. Compounds or compound dilutions are prepared in 100% DMSO concentration and diluted 1:50 into the final reaction. […] IC50s are determined.
IDH1 or IDH2 wildtype (wt) and mutant heterodimers are expressed and purified by methods known in the art. For example, IDH1wt/R132m heterodimer is expressed and purified as follows. Co-expression of IDH1wt-his and IDH1R132C-flag is carried out in sf9 insect cells. Cells (25 g) are resuspended in 250 ml of 50 mM Tirs, 500 mM NaCl, pH7.4, at 4° C. with stirring. Cells are disrupted with 4 passes through an M-Y110 Micro fluidizer (Microfluidics) set to 500 psi, and then centrifuged at 22,000 rcf for 20 min at 4° C. The supernatant is harvested and loaded at 15 cm/h on a Histrap FF 5*1 ml column (GE) which is equilibrated with 50 mM Tirs, 500 mM NaCl, pH7.4. Host cell contaminants are removed by washing the column with equilibration buffer followed by equilibration buffer containing 20 mM imidazole and 60 mM imidazole to baseline. IDH1wt-his homodimer and IDH1wt-his/IDH1R132C-flag are eluted by equilibration buffer containing 250 mM imidazole. Fractions eluted by 250 mM imidazole are pooled together and loaded at 15 cm/h onto a column pre-packed with 10 ml ANTI-FLAG® M2 Affinity Gel (Sigma), the column is equilibrated with 50 mM Tris, 500 mM NaCl, pH7.4. After washing with equilibration buffer, IDH1wt-his/IDH1R132C-flag heterodimer is eluted by equilibration buffer containing flag peptide (0.2 mg/ml). Aliquots of IDH1wt-his/IDH1R132C-flag are flash frozen in liquid N2 and stored at −80° C. Same conditions are used for the purification of IDH1wt-his/IDH1R132H-flag.

[2] = target: IDH1 wt/IDH1 R132H heterodimer (Homo sapiens (Human), UniProt O75874, R132H); test: In vitro assay for IDH1m R132H inhibitors, IDH1 wt/IDH1 R132H heterodimer, NADPH depletion (diaphorase/resazurin); format: biochemical; settings: IDH1 wt/R132H heterodimer, NADPH/NADP, not saturated; read-out: IDH1 wt/R132H NADPH/NADP IC50 not saturated
IDH1 wt/IDH1 R132H heterodimer, sequence (O75874 whole entry R132H): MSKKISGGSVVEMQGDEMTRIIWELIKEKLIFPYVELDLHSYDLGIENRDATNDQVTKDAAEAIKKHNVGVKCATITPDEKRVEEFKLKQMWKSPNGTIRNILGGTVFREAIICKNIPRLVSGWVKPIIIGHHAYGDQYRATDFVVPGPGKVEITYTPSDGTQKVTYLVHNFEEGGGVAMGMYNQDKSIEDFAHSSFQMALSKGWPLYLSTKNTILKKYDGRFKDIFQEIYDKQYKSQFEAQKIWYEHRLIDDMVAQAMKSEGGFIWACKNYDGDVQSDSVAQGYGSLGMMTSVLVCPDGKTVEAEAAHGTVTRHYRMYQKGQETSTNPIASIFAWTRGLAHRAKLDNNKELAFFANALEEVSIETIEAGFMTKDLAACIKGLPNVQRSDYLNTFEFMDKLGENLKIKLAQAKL
IDH1 wt/IDH1 R132H heterodimer, sequence (O75874 whole entry, stated change not applied): as the sequence (O75874 whole entry R132H) above, with H132R counted along it
Outline: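 Purified IDH1wt-his/IDH1R132H-flag heterodimer (sf9 co-expression) pre-incubated 1 hr at room temperature with compound and NADPH before α-KG addition. Remaining NADPH read by diaphorase/resazurin conversion to fluorescent resorufin, 5 min at 25° C. Compounds diluted 1:50 from DMSO; IC50 determined.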

[3] = target: IDH1-R132H homodimer enzyme (Homo sapiens (Human), UniProt O75874, R132H); test: In vitro assay IDH1-R132H homodimer, NADPH depletion assay with NADPH/NADP preincubation; format: biochemical; settings: 5 μM NADPH and 37.5 μM NADP
IDH1-R132H homodimer enzyme, sequence (O75874 whole entry R132H): as the sequence (O75874 whole entry R132H) above
Outline: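 Conversion of alpha-ketoglutarate to 2-hydroxyglutarate tracked by NADPH depletion. Reaction started with 5 mM alpha-ketoglutarate plus NADPH substrate mix (50 μl total), 60 min at room temperature. Leftover NADPH quantified via diaphorase/resazurin fluorescence.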

[4] = system: U87MG pLVX-IDH2 R140Q-neo cells; test: U87MG pLVX-IDH2 R140Q-neo cell based assay, 2-HG by LC-MS; settings: Homo sapiens, U-87 MG
[5] = system: Neurosphere cells (TS603); test: Cellular assay for IDH1m R132H inhibitors, 2-HG by LC-MS in neurosphere cells (TS603); format: cell-based; settings: 2-HG in media at 48 hours
Outline: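 TS603 neurosphere cells in NeuroCult medium were dosed with compound (0.25% DMSO final) at 37 C, 5% CO2. After 48 hours, medium 2-HG was measured by LC-MS. At 72 hours, viability was read by CellTiter-Glo luminescence.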

IDH2 R140Q = IDH2 R140Q (Homo sapiens (Human), UniProt P48735, R140Q); test: In vitro assay for IDH2m R140Q inhibitors, cofactor depletion assay; format: biochemical; settings: IDH2 R140Q enzyme
IDH2 R140Q, sequence (P48735 40-452 R140Q): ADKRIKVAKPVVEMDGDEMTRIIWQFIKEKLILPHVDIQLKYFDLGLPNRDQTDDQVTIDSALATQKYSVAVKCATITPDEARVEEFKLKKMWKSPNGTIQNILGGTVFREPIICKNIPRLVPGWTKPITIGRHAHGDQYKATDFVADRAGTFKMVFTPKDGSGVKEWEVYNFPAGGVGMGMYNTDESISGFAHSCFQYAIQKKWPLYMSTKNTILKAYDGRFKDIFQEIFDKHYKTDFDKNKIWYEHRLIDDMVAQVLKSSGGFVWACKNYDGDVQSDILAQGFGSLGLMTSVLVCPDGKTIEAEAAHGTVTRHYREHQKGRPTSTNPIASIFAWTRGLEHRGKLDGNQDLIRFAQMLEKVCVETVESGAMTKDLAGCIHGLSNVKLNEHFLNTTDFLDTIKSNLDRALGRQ
Outline: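 Remaining cofactor measured fluorimetrically: diaphorase/resazurin Stop Mix […], halting the reaction. Before that, mutant enzyme and compound sat 1 h at RT, then substrate mix (4 μM NADPH, 1.6 mM α-KG) was added for 16 h at RT.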

HT1080 cells = test: Cellular assay for IDH1m R132C inhibitors, 2-HG by LC-MS in HT1080 cells; format: cell-based; settings: Homo sapiens, HT-1080
Outline: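 HT1080 cells at 5000 cells/well were treated with compound (0.2% DMSO final). After 48 h, 2-HG in the medium was measured by LC-MS. Viability was read by CellTiter-Glo luminescence at 72 h.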

IDH1 wt/IDH1 R132C heterodimer, sequence (O75874 whole entry R132C): as the sequence (O75874 whole entry R132H) above, with H132C counted along it
IDH1 wt/IDH1 R132C heterodimer, sequence (O75874 whole entry, stated change not applied): as the sequence (O75874 whole entry R132H) above, with H132R counted along it

IC50 [1] [nM] | IC50 [2] [nM] | IC50 [3] [nM] | IC50 [4] [nM] | IC50 [5] [nM] | IC50 (IDH2 R140Q) [nM] | IC50 (HT1080 cells) [nM] | SMILES
≥ 1000 | > 1000 | > 1000 |  |  |  |  | COc1ccc(F)c(-c2nc(NC3CCC(F)(F)CC3)nc(NC3CCC(F)(F)CC3)n2)n1 [Compound 321]
≥ 1000 | > 1000 |  |  |  |  |  | FC1(F)CCC(Nc2nc(NC3CCNC3)nc(-c3cccc(C(F)(F)F)n3)n2)C1 (stereo not drawn) [Compound 91]
≥ 1000 | 100 to 1000 | > 1000 |  |  |  |  | FC1(F)CCC(Nc2nc(NC3CCC(F)(F)CC3)nc(-c3cccc(OC(F)(F)F)n3)n2)CC1 [Compound 296]
100 to 1000 | 100 to 1000 | > 1000 |  |  |  |  | Fc1ccc(F)c(-c2nc(NC3CCC(F)(F)CC3)nc(NC3CCC(F)(F)CC3)n2)n1 [Compound 276]
100 to 1000 | 100 to 1000 | > 1000 |  |  |  |  | FC1(F)CCC(Nc2nc(NC3CCC(F)(F)CC3)nc(-c3c[nH]nc3C(F)(F)F)n2)CC1 [Compound 297]
< 50 | 50 to 100 |  |  |  |  |  | CS(=O)(=O)N1CCC(Nc2nc(NC3CCC(F)(F)C3)nc(-c3cccc(C(F)(F)F)n3)n2)C1 (stereo not drawn) [Compound 56]
< 50 | < 50 |  | < 50 | < 50 | < 50 |  | Fc1cc(F)cc(Nc2nc(NC3CCC(F)(F)CC3)nc(-c3cccc(C(F)(F)F)n3)n2)c1 [Compound 125]
 | < 50 | < 50 | < 50 | < 50 | < 50 | 50 to 100 | FC1(F)CCC(Nc2nc(NC3CC(F)(F)C3)nc(-c3cccc(C(F)(F)F)n3)n2)CC1 [Compound 143]
< 50 | 50 to 100 |  |  |  |  |  | FC1(F)CCC(Nc2nc(NC3CCOC3)nc(-c3cccc(C(F)(F)F)n3)n2)C1 (stereo not drawn) [Compound 52]
50 to 100 | 100 to 1000 |  |  |  |  |  | CC(=O)N1CCC(Nc2nc(NC3CCC(F)(F)C3)nc(-c3cccc(C(F)(F)F)n3)n2)C1 (stereo not drawn) [Compound 55]
 | < 50 | 100 to 1000 | < 50 | < 50 | < 50 | 50 to 100 | FC1(F)CCC(Nc2nc(NC3CCC(F)(F)CC3)nc(-c3nc(C(F)(F)F)cs3)n2)CC1 [Compound 183]
 | < 50 | < 50 | < 50 | < 50 | < 50 | < 50 | FC1(F)CC[C@@H](Nc2nc(N[C@H]3CCC(F)(F)C3)nc(-c3cccc(C(F)(F)F)n3)n2)C1 [Compound 102]

Second part, the compound before the results:

SMILES | IC50 [1] [nM] | IC50 [2] [nM] | IC50 [3] [nM] | IC50 [4] [nM] | IC50 [5] [nM] | IC50 (IDH2 R140Q) [nM] | IC50 (HT1080 cells) [nM]
C[C@@H](Nc1nc(N[C@H](C)C2CC2)nc(-c2cccnc2)n1)C1CC1 [Compound 92, N^2,N^4-bis((R)-1-cyclopropylethyl)-6-(pyridin-3-yl)-1,3,5-triazine-2,4-diamine] | ≥ 1000 | > 1000 |  |  |  |  | 
Cc1nc(-c2nc(NC3CC(F)(F)C3)nc(NC3CC(F)(F)C3)n2)co1 [Compound 301] | ≥ 1000 | 100 to 1000 | > 1000 |  |  |  | 
N#Cc1ccc2c(c1)CC(Nc1nc(NC3CCC(F)(F)C3)nc(-c3cccc(C(F)(F)F)n3)n1)C2 (stereo not drawn) [Compound 242] | 50 to 100 | 50 to 100 | 100 to 1000 |  |  |  | 
CC(C)(C)OC(=O)N1CCC(Nc2nc(NC3CCC(F)(F)C3)nc(-c3cccc(C(F)(F)F)n3)n2)C1 (stereo not drawn) [Compound 53] | 50 to 100 | 100 to 1000 |  |  |  |  | 
CC(C)(C)OC(=O)N1CCC(Nc2nc(NC3CCC(F)(F)C3)nc(-c3cccc(C(F)(F)F)n3)n2)C1 (stereo not drawn) [Compound 90] | 50 to 100 | 100 to 1000 |  |  |  |  | 
N#CC1(c2cc(Nc3nc(NC4CC(F)(F)C4)nc(-n4ccc(C(F)(F)F)n4)n3)ccn2)CC1 [Compound 169] |  | < 50 | < 50 | < 50 | < 50 | < 50 | < 50
FC(F)(F)CNc1nc(Nc2ccnc(C(F)(F)F)c2)nc(-c2cccc(C(F)(F)F)n2)n1 [Compound 232] |  | < 50 | 100 to 1000 | < 50 | < 50 | < 50 | > 1000
Fc1cc(F)cc(Nc2nc(NC3CC(F)(F)C3)nc(-c3nc(F)ccc3F)n2)c1 [Compound 195] |  | < 50 | 50 to 100 | < 50 | < 50 | < 50 | 100 to 1000
FC1(F)CC(Nc2nc(Nc3ccnc(C(F)(F)F)c3)nc(-n3ccc(C(F)(F)F)n3)n2)C1 [Compound 197] |  | < 50 | 100 to 1000 | < 50 | < 50 | < 50 | 100 to 1000
Fc1cc(F)cc(Nc2nc(NC3CCC(F)(F)C3)nc(-n3ccc(C(F)(F)F)n3)n2)c1 (stereo not drawn) [Compound 108] |  | < 50 | < 50 | < 50 | < 50 | < 50 | 50 to 100
CC(Nc1nc(Nc2cc(F)cc(F)c2)nc(-n2ccc(C(F)(F)F)n2)n1)C(F)(F)F (stereo not drawn) [Compound 107] |  | < 50 | < 50 | < 50 | < 50 | < 50 | 100 to 1000
N#Cc1cc(F)cc(Nc2nc(NCC3CC3)nc(-c3cccc(C(F)(F)F)n3)n2)c1 [Compound 175] |  | < 50 | 50 to 100 | < 50 | < 50 | < 50 | 100 to 1000
CC(F)(F)c1cccc(-c2nc(Nc3ccnc(C4(C#N)CC4)c3)nc(NC3CCC(F)(F)CC3)n2)n1 [Compound 211] |  | < 50 | 100 to 1000 | < 50 | < 50 | < 50 | 100 to 1000
FC(F)(F)c1cc(Nc2nc(NCC3CC3)nc(-c3cccc(Cl)n3)n2)ccn1 [Compound 200] |  | < 50 | 50 to 100 | < 50 | < 50 | < 50 | > 1000
FC1(F)CC(CNc2nc(Nc3ccnc(C(F)(F)F)c3)nc(-c3cccc(C(F)(F)F)n3)n2)C1 [Compound 221] |  | < 50 | 100 to 1000 | < 50 | < 50 | < 50 | > 1000
C[C@@H](Nc1nc(NC2CC3(C2)CC(F)(F)C3)nc(-c2cccc(C(F)(F)F)n2)n1)C1CC1 [Compound 58] | < 50 | < 50 |  |  |  |  | 
CCC(Nc1nc(NC(CC)C(F)(F)F)nc(-c2cccc(Cl)n2)n1)C(F)(F)F (stereo not drawn) [Compound 103] |  | < 50 | < 50 | < 50 | < 50 | < 50 | < 50
CC(Nc1nc(Nc2ccnc(C3(C#N)CC3)c2)nc(-n2ccc(C(F)(F)F)n2)n1)C(F)(F)F (stereo not drawn) [Compound 201] |  | < 50 | 50 to 100 | < 50 | < 50 | < 50 | 50 to 100
